Measurements taken from the supplement of paper PMC10307832.

Assays:
Test in all cases: relative viability (nuclei count vs DMSO), 5 days (fraction); higher = more cells survive
[1] = compound: CCn1c(-c2nonc2N)nc2cnc(Oc3cccc(NC(=O)c4ccc(OCCN5CCOCC5)cc4)c3)cc21 + O=C(c1cc(Cc2n[nH]c(=O)c3ccccc23)ccc1F)N1CCN(C(=O)C2CC2)CC1 [Olaparib] (partner 8 µM)
In short: (§1)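 After 5 days of treatment, lung cancer cells in 1536-well plates were fixed and stained in a single step (final 0.05% Triton X-100, 1% formaldehyde, 1 ug/ml Hoechst) and their nuclei counted on 4× images. Treatment had been applied by pin tool the day after seeding as one drug alone or as a fixed anchor-drug dose with five library-drug doses (not always all listed) in √10 steps. Relative viability is the nuclei count of treated wells divided by that of vehicle wells, and values are medians of duplicate plates.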

[2] = compound: CCn1c(-c2nonc2N)nc2cnc(Oc3cccc(NC(=O)c4ccc(OCCN5CCOCC5)cc4)c3)cc21 + N=C(N)NC(=N)NCCc1ccccc1 [Phenformin] (partner 250 µM)
In short: as §1

[3] = compound: CCC1=CN=CN=C1N2CCN(CC2)CC3=NC4=C(N3)C=C(C=C4)C(F)(F)F + CS(=O)(=O)N1CCN(Cc2cc3nc(-c4cccc5[nH]ncc45)nc(N4CCOCC4)c3s2)CC1 [Pictilisib] (partner 1 µM)
In short: as §1

[4] = compound: N=C1NC(=O)/C(=C/c2ccc(O)cc2)S1 [Mirin] + C[C@@H](Oc1cc(-c2cnn(C3CCNCC3)c2)cnc1N)c1c(Cl)ccc(F)c1Cl [Crizotinib] (partner 1 µM)
In short: as §1

Cell Line | relative viability ([1]; first compound 0.04 µM) | relative viability ([1]; first compound 0.1265 µM) | relative viability ([1]; first compound 0.4 µM) | relative viability ([1]; first compound 1.265 µM) | relative viability ([1]; first compound 4 µM) | relative viability ([2]; first compound 0.04 µM) | relative viability ([2]; first compound 0.1265 µM) | relative viability ([2]; first compound 0.4 µM) | relative viability ([2]; first compound 1.265 µM) | relative viability ([2]; first compound 4 µM) | relative viability ([3]; first compound 0.04 µM) | relative viability ([3]; first compound 0.1265 µM) | relative viability ([3]; first compound 0.4 µM) | relative viability ([3]; first compound 1.265 µM) | relative viability ([3]; first compound 4 µM) | relative viability ([4]; first compound 0.25 µM) | relative viability ([4]; first compound 0.7906 µM) | relative viability ([4]; first compound 2.5 µM) | relative viability ([4]; first compound 7.906 µM) | relative viability ([4]; first compound 25 µM)
NCI-H1651 | 0.18 | 0.182 | 0.195 | 0.17 | 0.169 | 0.433 | 0.323 | 0.287 | 0.266 | 0.239 | 0.625 | 0.607 | 0.487 | 0.65 | 0.675 | 0.827 | 0.875 | 0.849 | 0.877 | 0.821
NCI-H1666 | 0.718 | 0.863 | 0.702 | 0.717 | 0.551 | 0.597 | 0.603 | 0.582 | 0.211 | 0.259 | 0.569 | 0.402 | 0.417 | 0.498 | 0.501 | 0.918 | 1.02 | 1.03 | 0.852 | 0.66
NCI-H1734 | 0.654 | 0.583 | 0.557 | 0.442 | 0.328 | 0.427 | 0.388 | 0.209 | 0.284 | 0.201 | 0.387 | 0.449 | 0.431 |  | 0.473 | 0.626 | 0.669 | 0.607 | 0.663 | 0.524
NCI-H1755 | 0.89 | 0.891 | 0.864 | 0.851 | 0.833 | 0.565 | 0.508 | 0.301 | 0.304 | 0.332 | 0.384 | 0.377 | 0.372 | 0.19 | 0.371 | 0.829 | 0.892 | 0.851 | 0.931 | 1.02
NCI-H1792 | 0.449 | 0.345 | 0.338 | 0.244 | 0.37 | 0.333 | 0.177 | 0.0802 | 0.145 | 0.225 | 0.361 | 0.3 | 0.215 | 0.188 | 0.25 | 1.02 | 1.01 | 1.05 | 0.864 | 0.963
NCI-H1915 | 0.252 | 0.265 | 0.251 | 0.185 | 0.167 | 0.38 | 0.355 | 0.285 | 0.188 | 0.169 | 0.916 | 0.899 | 0.931 | 0.687 | 0.963 | 0.863 |  | 0.87 | 0.809 | 1.03
NCI-H1944 | 0.42 | 0.419 | 0.358 | 0.386 | 0.327 | 0.192 | 0.161 | 0.109 | 0.111 | 0.102 | 0.361 | 0.335 | 0.325 |  | 0.328 | 0.971 |  | 1.04 | 1.1 | 0.957
NCI-H1975 | 0.9 | 0.772 | 0.623 | 0.389 | 0.271 | 0.343 | 0.277 | 0.208 | 0.186 | 0.168 | 0.311 | 0.307 | 0.268 | 0.287 | 0.288 | 0.974 | 1.02 | 0.93 | 0.954 | 0.943
NCI-H1993 | 1.06 | 1 | 1.06 | 1.13 | 0.849 | 0.66 | 0.562 | 0.546 | 0.565 | 0.508 | 0.837 | 0.808 | 0.708 | 0.765 | 0.834 | 0.757 | 0.82 | 0.845 | 0.926 | 0.788
NCI-H2009 | 0.605 | 0.566 | 0.549 | 0.486 | 0.334 | 0.493 | 0.357 | 0.284 | 0.192 | 0.224 | 0.821 | 0.824 | 0.826 | 0.514 | 0.544 | 1.08 | 1.11 | 1.01 | 0.853 | 1.16
NCI-H2023 | 0.472 | 0.438 | 0.408 | 0.264 | 0.245 | 0.538 | 0.381 | 0.328 | 0.223 | 0.186 | 0.274 | 0.225 | 0.216 | 0.192 | 0.319 | 0.658 | 0.665 | 0.585 | 0.692 | 0.567
NCI-H2085 | 0.832 | 0.693 | 0.632 | 0.573 | 0.559 | 0.787 | 0.676 | 0.596 | 0.551 | 0.559 | 0.468 | 0.426 | 0.412 | 0.296 | 0.429 | 0.798 | 0.853 | 0.878 | 0.704 | 0.923
NCI-H2087 | 0.802 | 0.539 | 0.559 | 0.483 | 0.586 | 0.598 | 0.458 | 0.474 | 0.432 | 0.372 | 0.852 | 0.906 | 0.883 | 0.819 | 0.653 | 0.898 | 1.08 | 0.849 | 0.771 | 1.16
NCI-H2126 | 1.09 | 0.966 | 0.907 | 0.889 | 0.854 | 0.646 | 0.571 | 0.392 |  | 0.405 | 0.518 | 0.496 | 0.493 | 0.442 | 0.496 | 1.02 | 1.07 | 0.981 | 0.994 | 1.21
NCI-H2170 | 0.629 | 0.661 | 0.629 | 0.549 | 0.415 | 0.468 | 0.417 | 0.388 | 0.355 | 0.315 | 0.303 | 0.304 | 0.274 | 0.289 | 0.325 | 1.19 | 1.22 | 1.37 | 1.15 | 0.959
NCI-H2228 | 1.13 | 0.742 | 0.776 | 0.671 | 0.544 | 0.41 | 0.31 | 0.329 | 0.318 | 0.331 | 0.383 | 0.397 | 0.297 | 0.309 | 0.436 | 0.481 | 0.474 | 0.462 | 0.469 | 0.488
